Results published in US7250422B2 (priority 2002, dated 2007).

Experiments:
Male ICR mice [1] = test: Conditioned place preference test for psychological dependence on morphine; conditions: p<0.01, FIG. 1
Description: (§1) 10 to 15 mice per group were used.

Male ICR mice [2] = test: Spontaneous locomotor activity increased by morphine (Video-tracking system); type: in vivo; conditions: for locomotor activity (steps): six days; for suppression of locomotor activity increased by morphine vs morphine control group: p<0.001
Method: as §1
Spontaneous locomotor activity was tested in a plastic chamber (26×30×30 cm) using a Video-tracking system. […] Immediately after the last administration, the mice were placed in the plastic chamber, and spontaneous locomotor activity was recorded for 30 min and analyzed using a computer program.

mice = test: Hot-plate test, morphine tolerance caused by repeated administration; type: in vivo; conditions: berberine 10 mg/kg i.p. 30 min before morphine 10 mg/kg s.c., six days, tested day 7; P<0.01; FIG. 4
Male ICR mice [3] = conditions: berberine 1, 3 and 10 mg/kg i.p. 30 min before morphine 5 mg/kg s.c.; FIG. 3
rats = conditions: intraperitoneal injection; cited from earlier work

COc1ccc2cc3[n+](cc2c1OC)CCc1cc2c(cc1-3)OCO2 [berberine, 7,8,13,13a-tetradihydro-9,10-dimethoxy-2,3-(methyldioxy)berbinium]
inhibition of psychological dependence on morphine (Male ICR mice [1]; berberine 1 or 2 mg/kg orally one hour before morphine 5 mg/kg i.p., equal to saline control): completely inhibited | locomotor activity (steps) (Male ICR mice [2]; berberine 1 mg/kg orally one hour before morphine 10 mg/kg, recorded 30 min): 19744 steps | suppression of locomotor activity increased by morphine vs morphine control group (Male ICR mice [2]; berberine 1 mg/kg orally): 61% | locomotor activity (steps) (Male ICR mice [2]; berberine 2 mg/kg orally one hour before morphine 10 mg/kg, recorded 30 min): 20027 steps | suppression of locomotor activity increased by morphine vs morphine control group (Male ICR mice [2]; berberine 2 mg/kg orally): 60% | inhibition of the development of morphine tolerance (AUC) (mice): significantly inhibited | effect on the analgesic effect of morphine (AUC of % MPE) (Male ICR mice [3]): rarely affect the analgesic effect of morphine | LD50 (rats): 90 mg/kg

CN1CC[C@]23c4c5ccc(O)c4O[C@H]2[C@@H](O)C=C[C@H]3[C@H]1C5 [morphine]
development of psychological dependence (testing time minus preconditioning time) (Male ICR mice [1]; morphine control, 5 mg/kg i.p. on days 3, 5, 7, 9): significant psychological dependence | locomotor activity (steps by a forefoot) (Male ICR mice [2]; only morphine 10 mg/kg once per day for six days, recorded 30 min): 50242 steps
